US20120152149A1, “USE OF 1,3-DIOLS AS BIOCIDES” (BASF SE, priority 2009, published 2012)
Where two headings read alike, the source gives them in different places.

What was measured:
Type in all cases: cell-based
C. albicans NCPF 3179 = test: Microstatic activity, MIC in tryptone soy broth; conditions: Candida albicans, NCPF3179, 120 h, 25° C., 5 days
Experimental: (§1) For this, in each case a 40 percent strength by weight solution of a diol in propylene glycol was prepared at 60° C. This solution was diluted with a double-strength soy solution (double-strength tryptone soy broth) as nutrient medium in the volume ratio 1:1. Further dilution with soy solution produced solutions with the following concentrations: 400 000 ppm (40%), 200 000 ppm (20%), 100 000 ppm (10%), 50 000 ppm (5%), 25 000 ppm (2.5%), 12 500 ppm (1.25%), 6250 ppm (0.625%), 3125 ppm (0.3125%). Pure soy solution was used as negative control. The positive control used was a solution of 5 ml of soy solution which has been treated with 0.1 ml of the respective microorganism. The test solutions consisted of 5 ml of the above-described soy solutions of the diols in the particular concentration which have been mixed with 0.1 ml of the respective microorganism. The samples and controls were incubated in the case of the bacteria at 30° C. for 48 hours, and in the case of fungi over 5 days at 25° C. In each case, the MIC (Minimum Inhibitory Concentration) value was determined. This value indicates the minimum concentration above which the growth of the microorganisms was visibly hindered compared to the corresponding sample without addition of the diol. […] For example, this was evident from the occurrence of clouding or visible growth of the microorganism. […] The MIC value stated is a range between the next higher concentration of a positive test and the same and/or lower concentration of a first negative test.

S. aureus NCIMB 9578 = test: Microstatic activity, MIC in tryptone soy broth; conditions: Staphylococcus aureus, NCIMB9578, 30° C., 48 hours
Experimental: as §1

P. vulgaris NCIMB 4175 = test: Microstatic activity, MIC in tryptone soy broth; conditions: Proteus vulgaris, NCIMB4175, 30° C., 48 hours
Experimental: as §1

[1] = system: P. aeruginosa NCIMB 10421; test: Microstatic activity, MIC in tryptone soy broth; conditions: Pseudomonas aeruginosa, NCIMB10421, 30° C., 48 hours
Experimental: as §1

E. coli NCIMB 8545 = test: Microstatic activity, MIC in tryptone soy broth; conditions: 48 hours; for MIC: Escherichia coli, NCIMB8545, 30° C.
Experimental: as §1

A. niger IMI 149007 = test: Microstatic activity, MIC in tryptone soy broth; conditions: Aspergillus niger, IMI149007, 120 h, 25° C., 5 days
Experimental: as §1

[2] = system: series of tested microorganisms (bacteria and fungi); test: Microstatic activity, highest MIC from the series of tested microorganisms; conditions: highest measured MIC from the series of tested microorganisms
Experimental: The following microorganisms were used;to test the biocidal effect against various bacteria and fungi: In each case, the MIC (Minimum Inhibitory Concentration) value was determined. This value indicates the minimum concentration above which the growth of the microorganisms was visibly hindered compared to the corresponding sample without addition of the diol. The MIC value stated is a range between the next higher concentration of a positive test and the same and/or lower concentration of a first negative test. In the last line of each of the tables below, a “maximum” value is listed. This value indicates the highest measured MIC value in each case from the series of tested microorganisms.

P. aeruginosa ATCC 15442 = test: Preservation stress test, example formulation 1 (standard emulsion O/W); conditions: 1% active substance
Experimental: (§2) Preservation stress tests (PSTs) were carried out in order to determine the preserving activity of the diols. In the preservation stress test, this is simulated through artificial loadings with microorganisms. These can either be inoculated as mixed population or individually in mixtures independent of one another. The inoculated product samples are incubated under defined conditions and, after defined times, samples are taken in order to determine the germ loading. In the case of adequate preservation, the number of microorganisms should, depending on the type, either decrease or remain constant in order to satisfy the requirements specified, e.g. in Ph. Eur. 6.0. To investigate the preserving effect of the diols, application-typical amounts of the diols were incorporated into example formulations. […] [table] These example formulations were used to prepare various mixtures which each comprised 1% active substance or comprised water instead of the active substance as placebo mixtures. These mixtures were in each case inoculated with the test germs such that a germ loading of 10^5-10^6 CFU/g was present in the test mixture. The bacteria were either used individually for the inoculation or as a mixed culture. To determine the starting germ count, immediately after inoculation, an aliquot was taken, diluted in dilution medium (phosphate buffer, 0.07 molar pH 7.4 (+/−0.2), with 1% Tween 80+0.3% soya lecithin), and the surviving germ count was determined in the dilution stages 10^−1 to 10^−3. The inoculated product samples then incubated for a total of 28 d at 20-25° C. After 2 d, 7 d, 14 d and after 28 d, aliquots were taken and diluted in dilution medium (phosphate buffer, 0.07 molar pH 7.4 (+/−0.2), with 1% Tween 80+0.3% soya lecithin). The surviving germ counts were determined in the dilution stages 10^−1 to 10^−4. The reference point taken for determining the reduction in germ count was the respective initial value of the sample. The results were given as logarithmic reductions.

S. aureus ATCC 6538 = test: as above; conditions: 1% active substance
Experimental: as §2

C. albicans ATCC 10231 = test: as above; conditions: 1% active substance
Experimental: as §2

E. coli ATCC 10536 = test: as above; conditions: 1% active substance
Experimental: as §2

A. niger ATCC 16404 = test: as above; conditions: 1% active substance
Experimental: as §2

[3] = lower limit of MIC range, read-out: MIC value (ppm of diol), from
[4] = upper limit of MIC range, read-out: MIC value (ppm of diol), to
[5] = lower limit, read-out: Maximum MIC value (ppm of diol), from
[6] = upper limit, read-out: Maximum MIC value (ppm of diol), to

Compound	MIC (C. albicans NCPF 3179; [3]) [mg/mL]	MIC (C. albicans NCPF 3179; [4]) [mg/mL]	MIC (S. aureus NCIMB 9578; [3]) [mg/mL]	MIC (S. aureus NCIMB 9578; [4]) [mg/mL]	MIC (P. vulgaris NCIMB 4175; [3]) [mg/mL]	MIC (P. vulgaris NCIMB 4175; [4]) [mg/mL]	MIC [1, 3] [mg/mL]	MIC [1, 4] [mg/mL]	MIC (E. coli NCIMB 8545; [3]) [mg/mL]	MIC (E. coli NCIMB 8545; [4]) [mg/mL]	MIC (A. niger IMI 149007; [3]) [mg/mL]	MIC (A. niger IMI 149007; [4]) [mg/mL]	MIC [2, 5] [mg/mL]	MIC [2, 6] [mg/mL]	other results
OCC1(CO)CCCCC1 [DMCH, 1,1-dimethylolcyclohexane]	> 25	≤ 50	> 12.5	≤ 25	> 12.5	≤ 25	> 12.5	≤ 25	> 6.25	≤ 12.5	> 25	≤ 50	> 25	≤ 50	
OCC1(CO)CCCCCCC1 [DMCO, 1,1-dimethylolcyclooctane]	> 6.25	≤ 12.5	> 6.25	≤ 12.5	> 6.25	≤ 12.5	> 12.5	≤ 25	> 3.12	≤ 6.25	> 6.25	≤ 12.5	> 12.5	≤ 25	
CCCCC(O)CO (centres unmarked) [1,2-Hexanediol, 1,2-hexanediol]															Microbicidal activity given as logarithmic reduction in germ count (P. aeruginosa ATCC 15442; 48 h): 0 log. Red.; Microbicidal activity given as logarithmic reduction in germ count (P. aeruginosa ATCC 15442; 7 d): 1 log. Red.; Microbicidal activity given as logarithmic reduction in germ count (P. aeruginosa ATCC 15442; 14 d): 1 log. Red.; Microbicidal activity given as logarithmic reduction in germ count (P. aeruginosa ATCC 15442; 28 d): ≧3 log. Red.; Microbicidal activity given as logarithmic reduction in germ count (S. aureus ATCC 6538; 48 h): 1 log. Red.; Microbicidal activity given as logarithmic reduction in germ count (S. aureus ATCC 6538; 7 d): 1 log. Red.; Microbicidal activity given as logarithmic reduction in germ count (S. aureus ATCC 6538; 14 d): ≧3 log. Red.; Microbicidal activity given as logarithmic reduction in germ count (S. aureus ATCC 6538; 28 d): 5 log. Red.; Microbicidal activity given as logarithmic reduction in germ count (C. albicans ATCC 10231; 48 h): 0 log. Red.; Microbicidal activity given as logarithmic reduction in germ count (C. albicans ATCC 10231; 7 d): 0 log. Red.; Microbicidal activity given as logarithmic reduction in germ count (C. albicans ATCC 10231; 14 d): 0 log. Red.; Microbicidal activity given as logarithmic reduction in germ count (C. albicans ATCC 10231; 28 d): 1 log. Red.; Microbicidal activity given as logarithmic reduction in germ count (E. coli ATCC 10536; 48 h): 0 log. Red.; Microbicidal activity given as logarithmic reduction in germ count (E. coli ATCC 10536; 7 d): 1 log. Red.; Microbicidal activity given as logarithmic reduction in germ count (E. coli ATCC 10536; 14 d): 2 log. Red.; Microbicidal activity given as logarithmic reduction in germ count (E. coli ATCC 10536; 28 d): ≧3 log. Red.; Microbicidal activity given as logarithmic reduction in germ count (A. niger ATCC 16404; 48 h): 0 log. Red.; Microbicidal activity given as logarithmic reduction in germ count (A. niger ATCC 16404; 7 d): 0 log. Red.; Microbicidal activity given as logarithmic reduction in germ count (A. niger ATCC 16404; 14 d): 0 log. Red.; Microbicidal activity given as logarithmic reduction in germ count (A. niger ATCC 16404; 28 d): 0 log. Red.
OCC1(CO)CC/C=C\CCC1 [DMCOE, 1,1-dimethylolcyclooct-4-ene]	> 12.5	≤ 25	> 6.25	≤ 12.5	> 3.12	≤ 6.25	> 12.5	≤ 25	> 3.12	≤ 6.25	> 12.5	≤ 25	> 12.5	≤ 25	

Further lines, with some results ahead:

MIC (C. albicans NCPF 3179; [3]) [mg/mL]	MIC (C. albicans NCPF 3179; [4]) [mg/mL]	MIC (S. aureus NCIMB 9578; [3]) [mg/mL]	MIC (S. aureus NCIMB 9578; [4]) [mg/mL]	MIC (P. vulgaris NCIMB 4175; [3]) [mg/mL]	MIC (P. vulgaris NCIMB 4175; [4]) [mg/mL]	MIC [1, 3] [mg/mL]	MIC [1, 4] [mg/mL]	MIC (E. coli NCIMB 8545; [3]) [mg/mL]	MIC (E. coli NCIMB 8545; [4]) [mg/mL]	MIC (A. niger IMI 149007; [3]) [mg/mL]	MIC (A. niger IMI 149007; [4]) [mg/mL]	MIC [2, 5] [mg/mL]	MIC [2, 6] [mg/mL]	Compound	other results
> 25	≤ 50	> 50	≤ 100	> 50	≤ 100	> 100		> 25	≤ 50	> 12.5	≤ 25	> 100		CC(C)CCC(CO)(CO)C(C)C [IMBPD, 2-isopropyl-2-(3-methylbutyl)propane-1,3-diol]	
> 25	≤ 50	> 12.5	≤ 25	> 3.12	≤ 6.25	> 50	≤ 100	> 6.25	≤ 12.5	> 12.5	≤ 25	> 50	≤ 100	CCCCC(CC)(CO)CO [BEPD, 2-butyl-2-ethylpropane-1,3-diol]	
> 50	≤ 100	> 12.5	≤ 25	> 3.12	≤ 6.25	> 25	≤ 50		≤ 3.12	> 50	≤ 100	> 50	≤ 100	CC(CO)(CO)c1ccccc1 [MPPD, 2-methyl-2-phenylpropane-1,3-diol]	MIC value (ppm of diol), from (E. coli NCIMB 8545; 30° C., lower limit of MIC range): >0 ppm
> 50	≤ 100	> 25	≤ 50	> 25	≤ 50	> 12.5	≤ 25	> 12.5	≤ 25	> 50	≤ 100	> 50	≤ 100	CCC(C)(CO)CO [EMPD, 2-ethyl-2-methylpropane-1,3-diol]	
> 50	≤ 100	> 50	≤ 100	> 50	≤ 100	> 50	≤ 100	> 50	≤ 100					CC(O)CC(C)O (centres unmarked) [2,4-Pentanediol, 2,4-pentanediol, reference compound]	
				> 100		> 100								CC(O)CO (centres unmarked) [Propylene glycol, propylene glycol, reference compound]	
